This assay has as its target T1, NG-FlhF (Shewanella putrefaciens, UniProt A4Y8J9).
T1 construct: gene Sputcn32_2561; NG domain, residues 174-460, C-terminal His6 tag, recombinant from E. coli BL21(DE3), monomer; residues 183-437 modelled
T1 sequence (A4Y8J9 174-460): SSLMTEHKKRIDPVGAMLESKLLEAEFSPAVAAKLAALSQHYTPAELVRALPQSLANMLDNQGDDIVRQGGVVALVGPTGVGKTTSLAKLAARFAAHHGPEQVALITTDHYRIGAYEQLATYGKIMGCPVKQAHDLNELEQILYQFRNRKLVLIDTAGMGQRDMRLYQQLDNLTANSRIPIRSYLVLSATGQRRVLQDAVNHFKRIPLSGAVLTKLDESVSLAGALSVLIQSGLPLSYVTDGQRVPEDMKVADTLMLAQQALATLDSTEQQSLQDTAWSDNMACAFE
The assay can be described thus: X-ray crystal structure. Type of assay: binding. The note with it: 5 mM GDP pre-incubated with protein; crystallised at pH 5.0, 20 °C; nucleotide site, no Mg2+ in active site.

Each structure is given as a SMILES string.

Consider `Nc1nc2c(ncn2[C@@H]2O[C@H](COP(=O)(O)OP(=O)(O)O)[C@@H](O)[C@H]2O)c(=O)[nH]1` [GDP], for which the X-ray crystal structure result is on record as “Density which could unambiguously be assigned to GDP was found in the active center”.

The record behind these values is paper PMC10910532, “Structure of the GDP-bound state of the SRP GTPase FlhF” (Acta Crystallographica. Section F, Structural Biology …, 2024).
